Results as given in patent US10004701B2, “Methods and compositions for treating infection” (UNIVERSITY OF ROCHESTER, priority 2012, dated 2018).
Where a name gives a salt, the structure may show the parent alone. Read-outs that look alike come from different tables or passages of the source.

Key:
Experiment in all cases: AK assay 384-well format, Prestwick library screening
E. coli = assay type: cell-based, Escherichia coli; conditions: 50 μM final drug concentration; for fold induction at 50 µM: Escherichia coli, 3 h
K. pneumoniae = assay type: cell-based, Klebsiella pneumoniae; conditions: 50 μM final drug concentration; for fold induction at 50 µM: Klebsiella pneumoniae, 3 h
E. cloacae = assay type: cell-based, Enterobacter cloacae; conditions: 50 μM final drug concentration; for fold induction at 50 µM: Enterobacter cloacae, 3 h
P. aeruginosa = assay type: cell-based, Pseudomonas aeruginosa; conditions: 50 μM final drug concentration; for fold induction at 50 µM: Pseudomonas aeruginosa, 3 h
[1] = tested on: S. aureus strain USA300-0114; assay type: cell-based, Staphylococcus aureus; conditions: 50 μM final drug concentration; for fold induction at 50 µM: Staphylococcus aureus, USA300, 3 h
[2] = tested on: A. baumannii strain 98-37-09; assay type: cell-based, Acinetobacter baumannii; conditions: 50 μM final drug concentration; for fold induction at 50 µM: Acinetobacter baumannii, 983709, 3 h
E. faecium = assay type: cell-based, Enterococcus faecium; conditions: 50 μM final drug concentration; for fold induction at 50 µM: Enterococcus faecium, 3 h
[3] = cutoff for positive-scoring molecules 3-fold increase
[4] = planktonic, cutoff for positive-scoring molecules 3-fold increase, read-out: AK-based Prestwick Library Screening Results, E. coli (fold increase in extracellular AK activity)
[5] = planktonic, cutoff for positive-scoring molecules 3-fold increase, read-out: AK-based Prestwick Library Screening Results, K. pneumoniae (fold increase in extracellular AK activity)
[6] = planktonic, cutoff for positive-scoring molecules 3-fold increase, read-out: AK-based Prestwick Library Screening Results, E. cloacae (fold increase in extracellular AK activity)
[7] = planktonic, cutoff for positive-scoring molecules 3-fold increase, read-out: AK-based Prestwick Library Screening Results, P. aeruginosa (fold increase in extracellular AK activity)
[8] = planktonic, cutoff for positive-scoring molecules 3-fold increase, read-out: AK-based Prestwick Library Screening Results, S. aureus (fold increase in extracellular AK activity)
[9] = planktonic, cutoff for positive-scoring molecules 3-fold increase, read-out: AK-based Prestwick Library Screening Results, A. baumannii (fold increase in extracellular AK activity)
[10] = planktonic, cutoff for positive-scoring molecules 3-fold increase, read-out: AK-based Prestwick Library Screening Results, E. faecium (fold increase in extracellular AK activity)
[11] = planktonic E. coli, […], read-out: AK-based Prestwick library screening result, E. coli (fold increase in extracellular AK activity)
[12] = planktonic K. pneumoniae, […], read-out: AK-based Prestwick library screening result, K. pneumoniae (fold increase in extracellular AK activity)
[13] = planktonic E. cloacae, […], read-out: AK-based Prestwick library screening result, E. cloacae (fold increase in extracellular AK activity)
[14] = planktonic P. aeruginosa, […], read-out: AK-based Prestwick library screening result, P. aeruginosa (fold increase in extracellular AK activity)
[15] = planktonic S. aureus, […], read-out: AK-based Prestwick library screening result, S. aureus (fold increase in extracellular AK activity)
[16] = planktonic A. baumannii, […], read-out: AK-based Prestwick library screening result, A. baumannii (fold increase in extracellular AK activity)
[17] = planktonic E. faecium, […], read-out: AK-based Prestwick library screening result, E. faecium (fold increase in extracellular AK activity)
[18] = planktonic E. coli, positive cutoff 3-fold increase, read-out: AK-based Prestwick library screening result, E. coli (fold increase in extracellular AK activity)
[19] = planktonic K. pneumoniae, positive cutoff 3-fold increase, read-out: AK-based Prestwick library screening result, K. pneumoniae (fold increase in extracellular AK activity)
[20] = planktonic E. cloacae, positive cutoff 3-fold increase, read-out: AK-based Prestwick library screening result, E. cloacae (fold increase in extracellular AK activity)
[21] = planktonic P. aeruginosa, positive cutoff 3-fold increase, read-out: AK-based Prestwick library screening result, P. aeruginosa (fold increase in extracellular AK activity)
[22] = planktonic S. aureus, positive cutoff 3-fold increase, read-out: AK-based Prestwick library screening result, S. aureus (fold increase in extracellular AK activity)
[23] = planktonic A. baumannii, positive cutoff 3-fold increase, read-out: AK-based Prestwick library screening result, A. baumannii (fold increase in extracellular AK activity)
[24] = planktonic E. faecium, positive cutoff 3-fold increase, read-out: AK-based Prestwick library screening result, E. faecium (fold increase in extracellular AK activity)

In the case of `COc1ccc2c(c1)N(C[C@H](C)CN(C)C)c1ccccc1S2.O=C(O)/C=C\C(=O)O` [Methotrimeprazine maleat salt], the “AK-based Prestwick Library Screening Results, E. coli (fold increase in extracellular AK activity)” value (E. coli; [3]) is reported as 1.3, the “AK-based Prestwick Library Screening Results, K. pneumoniae (fold increase in extracellular AK activity)” value (K. pneumoniae; [3]) is reported as 1.0 and the “AK-based Prestwick Library Screening Results, E. cloacae (fold increase in extracellular AK activity)” value (E. cloacae; [3]) is reported as 1.8. The “AK-based Prestwick Library Screening Results, P. aeruginosa (fold increase in extracellular AK activity)” value (P. aeruginosa; [3]) was 1.1, the “AK-based Prestwick Library Screening Results, S. aureus (fold increase in extracellular AK activity)” value [1, 3] was 1.2 and the “AK-based Prestwick Library Screening Results, A. baumannii (fold increase in extracellular AK activity)” value [2, 3] was 1.1. For the same compound, the “AK-based Prestwick Library Screening Results, E. faecium (fold increase in extracellular AK activity)” value (E. faecium; [3]) was 1.0.
For `CC(C(=O)O)c1ccc(-c2ccccc2)c(F)c1` (stereo not drawn) [Flurbiprofen], the fold induction at 50 µM (E. coli; [4]) was 0.8, the fold induction at 50 µM (K. pneumoniae; [5]) was 0.7 and the fold induction at 50 µM (E. cloacae; [6]) was 1.6. The fold induction at 50 µM (P. aeruginosa; [7]) was 0.8, the fold induction at 50 µM [1, 8] was 0.6 and the fold induction at 50 µM [2, 9] was 0.9. The fold induction at 50 µM (E. faecium; [10]) was 0.9.
For `O=c1[nH]c(=O)n([C@H]2C[C@H](O)[C@@H](CO)O2)cc1C(F)(F)F` [Trifluridine], the fold induction at 50 µM (E. coli; [11]) was 0.9, the fold induction at 50 µM (K. pneumoniae; [12]) was 1.1 and the fold induction at 50 µM (E. cloacae; [13]) was 0.7. The fold induction at 50 µM (P. aeruginosa; [14]) was 0.6, the fold induction at 50 µM [1, 15] was 0.7 and the fold induction at 50 µM [2, 16] was 1.1. The fold induction at 50 µM (E. faecium; [17]) was 0.9.
Work on `CN[C@H]1CC[C@@H](c2ccc(Cl)c(Cl)c2)c2ccccc21` [Sertraline] yielded a fold induction at 50 µM (E. coli; [18]) of 1.6, a fold induction at 50 µM (K. pneumoniae; [19]) of 1.4 and a fold induction at 50 µM (E. cloacae; [20]) of 1.5. The fold induction at 50 µM (P. aeruginosa; [21]) was 1.2, the fold induction at 50 µM [1, 22] was 1.6 and the fold induction at 50 µM [2, 23] was 2.9. The fold induction at 50 µM (E. faecium; [24]) was 1.1.
In the case of Bromocryptine mesylate, the “AK-based Prestwick Library Screening Results, E. coli (increase in extracellular AK activity)” value (E. coli; 384-well format, […]) is reported as 1.3, the “AK-based Prestwick Library Screening Results, K. pneumoniae (increase in extracellular AK activity)” value (K. pneumoniae; 384-well format, […]) is reported as 1.1 and the “AK-based Prestwick Library Screening Results, E. cloacae (increase in extracellular AK activity)” value (E. cloacae; 384-well format, […]) is reported as 1.4. For the same compound, the “AK-based Prestwick Library Screening Results, P. aeruginosa (increase in extracellular AK activity)” value (P. aeruginosa; 384-well format, […]) was 1.1, the “AK-based Prestwick Library Screening Results, S. aureus (increase in extracellular AK activity)” value ([1]; 384-well format, […]) was 0.6 and the “AK-based Prestwick Library Screening Results, A. baumannii (increase in extracellular AK activity)” value ([2]; 384-well format, […]) was 1.4. For the same compound, the “AK-based Prestwick Library Screening Results, E. faecium (increase in extracellular AK activity)” value (E. faecium; 384-well format, […]) was 0.9.
Work on `CN(C)CCOC(=O)C(c1ccccc1)C1(O)CCCC1` (stereo not drawn) [Cyclopentolate hydrochloride] yielded a fold induction at 50 µM (E. coli; [18]) of 1.2, a fold induction at 50 µM (K. pneumoniae; [19]) of 1 and a fold induction at 50 µM (E. cloacae; [20]) of 1.3. The fold induction at 50 µM (P. aeruginosa; [21]) was 1.1, the fold induction at 50 µM [1, 22] was 1.1 and the fold induction at 50 µM [2, 23] was 1. The fold induction at 50 µM (E. faecium; [24]) was 1.
Compound `CCn1cc(C(=O)O)c(=O)c2cnc(N3CCCC3)nc21` [Piromidic acid] has a fold induction at 50 µM (E. coli; [4]) of 0.6, a fold induction at 50 µM (K. pneumoniae; [5]) of 0.6 and a fold induction at 50 µM (E. cloacae; [6]) of 0.6. It also gave a fold induction at 50 µM (P. aeruginosa; [7]) of 0.5, a fold induction at 50 µM [1, 8] of 0.7 and a fold induction at 50 µM [2, 9] of 0.5. For the same compound, the fold induction at 50 µM (E. faecium; [10]) was 0.9.
For `C=C1[C@H]2C[C@@]3([C@@H]1O)[C@@H](C[C@@H]2O)[C@]12[C@@H]4C[C@H]3[C@H]1N(CC)C[C@]4(C)CC[C@@H]2O` [Napelline], the “AK-based Prestwick Library Screening Results, E. coli (fold increase in extracellular AK activity)” value (E. coli; […]) was 1.3, the “AK-based Prestwick Library Screening Results, K. pneumoniae (fold increase in extracellular AK activity)” value (K. pneumoniae; […]) was 1.0 and the “AK-based Prestwick Library Screening Results, E. cloacae (fold increase in extracellular AK activity)” value (E. cloacae; […]) was 3.6. The “AK-based Prestwick Library Screening Results, P. aeruginosa (fold increase in extracellular AK activity)” value (P. aeruginosa; […]) was 1.1, the “AK-based Prestwick Library Screening Results, S. aureus (fold increase in extracellular AK activity)” value ([1]; […]) was 1.4 and the “AK-based Prestwick Library Screening Results, A. baumannii (fold increase in extracellular AK activity)” value ([2]; […]) was 1.0. The “AK-based Prestwick Library Screening Results, E. faecium (fold increase in extracellular AK activity)” value (E. faecium; […]) was 1.0.
For `CN1[C@@H]2CC[C@H]1C[C@@H](O)C2` [Tropine], the fold induction at 50 µM (E. coli; [11]) was 0.9, the fold induction at 50 µM (K. pneumoniae; [12]) was 0.8 and the fold induction at 50 µM (E. cloacae; [13]) was 1.2. The fold induction at 50 µM (P. aeruginosa; [14]) was 0.8, the fold induction at 50 µM [1, 15] was 0.7 and the fold induction at 50 µM [2, 16] was 0.8. For the same compound, the fold induction at 50 µM (E. faecium; [17]) was 0.9.
